Experimental data: patent US9879043B1, “Synthesis of non-natural cofactor analogs of S-adenosyl-L-methionine using methionine adenosyltransferase” (University of Kentucky Research Foundation, priority 2013, dated 2018)

Tests used:
Type in all cases: biochemical
[1] = biological target: T1, Methanocaldococcus jannaschii MAT (mMAT) (Methanocaldococcus jannaschii, UniProt Q58605); details: 2 mM Met analog, 1 mM ATP, 5 μM MAT, pH 8, 4 h, 65° C.; average of two assays
T1 sequence (Q58605 1-406): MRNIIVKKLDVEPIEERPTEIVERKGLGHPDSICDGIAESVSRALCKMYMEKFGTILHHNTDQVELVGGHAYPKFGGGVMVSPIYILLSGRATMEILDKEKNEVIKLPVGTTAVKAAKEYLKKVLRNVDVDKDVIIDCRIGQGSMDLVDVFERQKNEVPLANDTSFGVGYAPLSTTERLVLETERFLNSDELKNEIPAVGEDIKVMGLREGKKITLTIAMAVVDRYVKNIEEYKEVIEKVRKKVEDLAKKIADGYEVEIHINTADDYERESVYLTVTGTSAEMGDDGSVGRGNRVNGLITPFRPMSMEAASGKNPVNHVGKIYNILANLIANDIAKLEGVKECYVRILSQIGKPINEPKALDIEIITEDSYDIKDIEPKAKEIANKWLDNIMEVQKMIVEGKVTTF
Protocol: (§1) Standard uniform assay conditions (2 mM Met analog, 1 mM ATP, 5 μM MAT, 25 mM Tris, 5 mM MgCl2, 50 mM KCl, pH 8, 4 h) were adopted to facilitate this broad assessment. For the thermophilic counterpart (mMAT), reactions were conducted at 65° C., while all other reactions were incubated at 37° C. Production of SAM analogs was determined by an RP-HPLC end point assay to afford complete analysis of the desired SAM analog and/or any corresponding degradation products known to directly derive from the desired SAM analog intermediate.
(§2) To monitor MAT reactions, analytical RP HPLC employed a Luna C18 column (5 μm, 4.6 mm×250 mm; Phenomenex, Torrance, Calif., USA) [gradient of 10% B to 40% B over 15 min, 40% B to 75% B over 5 min (A=10 mM NaH2PO4, 5 mM octane sulfonic acid, pH was adjusted to 3.5 using phosphoric acid; B=acetonitrile) flow rate=1 mL min^−1; A254].
(§3) The sMAT and mMAT reactions were conducted at 65° C. while hMATs and eMAT were incubated at 37° C. Reactions were quenched by adding an equal volume of methanol followed by centrifugation (10,000×g for 15 min) to remove the precipitated protein and product formation for each reaction was subsequently analyzed by RP-HPLC using Method D (FIG. 15, first column). For each reaction, percent yield was based upon the integration of species at 254 nm and calculated by dividing the integrated area of product and/or decomposed product by the sum of integrated area of product and/or decomposed product and the remaining substrate. The assays were repeated twice under identical conditions, and Table 2 (and FIG. 5) represents an average value of two assays. The inclusion of adenine and 5′-R-thio-5′-adenosine in these calculations is based upon the established SAM and ATP chemical decomposition pathways which indicate adenine and 5′-R-thio-5′-adenosine to only derive from SAM (not ATP). All putative products were subsequently confirmed by high resolution electrospray ionization (ESI) mass spectra with positive (+) and/or negative (−) mode.

[2] = biological target: T2, Sulfolobus solfataricus MAT (sMAT) (Saccharolobus solfataricus, UniProt Q980S9); details: 2 mM analog, 1 mM ATP, 5 μM sMAT, pH 8.0, 4 h at 65° C.; average of two assays
T2 sequence (Q980S9 1-404): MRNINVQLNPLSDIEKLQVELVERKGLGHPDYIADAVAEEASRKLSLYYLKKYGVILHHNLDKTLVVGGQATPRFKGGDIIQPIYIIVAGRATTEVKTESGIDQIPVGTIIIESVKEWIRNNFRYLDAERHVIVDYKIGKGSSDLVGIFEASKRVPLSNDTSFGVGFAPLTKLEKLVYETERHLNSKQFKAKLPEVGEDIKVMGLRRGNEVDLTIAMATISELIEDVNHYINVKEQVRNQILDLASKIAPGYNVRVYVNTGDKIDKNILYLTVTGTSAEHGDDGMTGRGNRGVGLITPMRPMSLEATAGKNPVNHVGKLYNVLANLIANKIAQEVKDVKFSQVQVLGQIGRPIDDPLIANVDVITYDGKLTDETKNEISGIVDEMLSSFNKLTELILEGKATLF
Protocol: In-vitro sMAT assay: In vitro sMAT reactions were conducted in a volume of 50 μl with 2 mM S/Se-alkylated analog, 1 mM ATP and 5 μM purified sMAT in 25 mM Tris buffer pH 8.0, 5 mM MgCl2, 50 mM KCl for 4 h at 65° C. Reactions were quenched by adding an equal volume of methanol followed by centrifugation (10,000×g for 15 min) to remove the precipitated protein and product formation for each reaction was subsequently analyzed by reverse phase HPLC (RP-HPLC) using method described below. For each reaction, percent yield was based upon the integration of species at 254 nm and calculated by dividing the integrated area of product and/or decomposed product by the sum of integrated area of product and/or decomposed product and the remaining substrate. The assays were repeated twice under identical conditions, and Table 4 (and FIG. 17) represents an average value of two assays. The inclusion of adenine and 5′-R-thio-5′-adenosine in these calculations is based upon the established SAM and ATP chemical decomposition pathways which indicate adenine and 5′-R-thio-5′-adenosine to only derive from SAM (not ATP). All putative products were subsequently confirmed by high resolution electrospray ionization (ESI) mass spectra with positive (+) and/or negative (−) mode.
RP-HPLC method: Reactions were quenched by the addition of equal volume of methanol followed by centrifugation at 10,000 g for 15 min to remove precipitated protein before applying on an analytical Varian ProStar HPLC [Luna C18 column, 5 μm, 4.6 mm×250 mm; Phenomenex, Torrance, Calif., USA; gradient of 10% B to 40% B over 15 min, 40% B to 75% B over 5 min (A=10 mM NaH2PO4, 5 mM octane sulfonic acid, pH was adjusted to 3.5 using phosphoric acid; B=acetonitrile) flow rate=1 mL min^−1; A254].

[3] = biological target: Escherichia coli MAT (eMAT) (Escherichia coli, UniProt P0A817); assay: MAT assay, turnover of S/Se-Met analogs to S(Se)AM analogs (RP-HPLC end point); details: 2 mM Met analog, 1 mM ATP, 5 μM MAT, pH 8, 4 h, 37° C.; average of two assays
Protocol: as §1, with “intermediate. Putative SAM analog and SAM-derived degradative product formation was subsequently confirmed via high-resolution mass spectrometry (HRMS) analysis for all positive reactions (see Table 2).” for “intermediate.”
as §2
as §3, with “In vitro MAT reactions were conducted in a volume of 50 μl with 2 mM S/Se-alkylated analog (compounds 2-30), 1 mM ATP and 5 μM purified MAT in 25 mM Tris buffer pH 8.0, 5 mM MgCl2, 50 mM KCl for 4 h. The sMAT” for “The sMAT”

[4] = biological target: human MAT II catalytic alpha subunit alone (hMAT2A) (Homo sapiens, UniProt P31153); assay: as above; details: 2 mM Met analog, 1 mM ATP, 5 μM MAT, pH 8, 4 h, 37° C.; average of two assays
Protocol: as §1, §2, §3

[5] = biological target: human MAT II catalytic alpha and regulatory beta subunit (hMAT2) (Homo sapiens, UniProt P31153); assay: as above; details: 2 mM Met analog, 1 mM ATP, 5 μM MAT, pH 8, 4 h, 37° C.; average of two assays
Protocol: as §1, §2, §3

[6] = biological target: human MAT I catalytic subunit alpha (hMAT1A) (Homo sapiens, UniProt Q00266); assay: as above; details: 2 mM Met analog, 1 mM ATP, 5 μM MAT, pH 8, 4 h, 37° C.; average of two assays
Protocol: as §1, §2, §3

CCCSCC[C@H](N)C(=O)O [compound 8, (2S)-2-amino-4-(propylsulfanyl)butanoic acid]
Percentage Turn-over mMAT [1]: 21% | Percentage Turn-Over (sMAT) [2]: 44% | Percentage Turn-over eMAT [3]: 2% | Percentage Turn-over hMAT2A [4]: 54% | Percentage Turn-over hMAT2 [5]: 55% | Percentage Turn-over hMAT1A [6]: 5%

CC(C)SCC[C@H](N)C(=O)O [compound 9, (2S)-2-amino-4-(propan-2-ylsulfanyl)butanoic acid]
Percentage Turn-over mMAT [1]: 8% | Percentage Turn-Over (sMAT) [2]: 53% | Percentage Turn-over eMAT [3]: 0% | Percentage Turn-over hMAT2A [4]: 2% | Percentage Turn-over hMAT2 [5]: 2% | Percentage Turn-over hMAT1A [6]: 2%

C#CCCSCC[C@H](N)C(=O)O [compound 10, (2S)-2-amino-4-(but-3-yn-1-ylsulfanyl)butanoic acid]
Percentage Turn-over mMAT [1]: 16% | Percentage Turn-Over (sMAT) [2]: 30% | Percentage Turn-over eMAT [3]: 0% | Percentage Turn-over hMAT2A [4]: 12% | Percentage Turn-over hMAT2 [5]: 40% | Percentage Turn-over hMAT1A [6]: 0%

C/C=C/CSCC[C@H](N)C(=O)O [compound 11, (2S)-2-amino-4-[(2E)-but-2-en-1-ylsulfanyl]butanoic acid]
Percentage Turn-over mMAT [1]: 30% | Percentage Turn-Over (sMAT) [2]: 27% | Percentage Turn-over eMAT [3]: 2% | Percentage Turn-over hMAT2A [4]: 5% | Percentage Turn-over hMAT2 [5]: 25% | Percentage Turn-over hMAT1A [6]: 2%

C=C(C)CSCC[C@H](N)C(=O)O [compound 12, (2S)-2-amino-4-[(2-methylprop-2-en-1-yl)sulfanyl]butanoic acid]
Percentage Turn-over mMAT [1]: 6% | Percentage Turn-Over (sMAT) [2]: 15% | Percentage Turn-over eMAT [3]: 0% | Percentage Turn-over hMAT2A [4]: 2% | Percentage Turn-over hMAT2 [5]: 2% | Percentage Turn-over hMAT1A [6]: 0%

CCCCSCC[C@H](N)C(=O)O [compound 13, (2S)-2-amino-4-(butylsulfanyl)butanoic acid]
Percentage Turn-over mMAT [1]: 12% | Percentage Turn-Over (sMAT) [2]: 27% | Percentage Turn-over eMAT [3]: 0% | Percentage Turn-over hMAT2A [4]: 12% | Percentage Turn-over hMAT2 [5]: 13% | Percentage Turn-over hMAT1A [6]: 0%

CC(C)CSCC[C@H](N)C(=O)O [compound 14, (2S)-2-amino-4-[(2-methylpropyl)sulfanyl]butanoic acid]
Percentage Turn-over mMAT [1]: 1% | Percentage Turn-Over (sMAT) [2]: 57% | Percentage Turn-over eMAT [3]: 0% | Percentage Turn-over hMAT2A [4]: 0% | Percentage Turn-over hMAT2 [5]: 0% | Percentage Turn-over hMAT1A [6]: 0%

C=C/C=C/CSCC[C@H](N)C(=O)O [compound 16, (2S)-2-amino-4-[(2E)-penta-2,4-dien-1-ylsulfanyl]butanoic acid]
Percentage Turn-over mMAT [1]: 8% | Percentage Turn-Over (sMAT) [2]: 14% | Percentage Turn-over eMAT [3]: 4% | Percentage Turn-over hMAT2A [4]: 4% | Percentage Turn-over hMAT2 [5]: 44% | Percentage Turn-over hMAT1A [6]: 2%

[N-]=[N+]=NCCSCC[C@H](N)C(=O)O [compound 17, (2S)-2-amino-4-[(2-azidoethyl)sulfanyl]butanoic acid]
Percentage Turn-over mMAT [1]: 29% | Percentage Turn-Over (sMAT) [2]: 50% | Percentage Turn-over eMAT [3]: 0% | Percentage Turn-over hMAT2A [4]: 18% | Percentage Turn-over hMAT2 [5]: 49% | Percentage Turn-over hMAT1A [6]: 4%

CC(C)CCSCC[C@H](N)C(=O)O [compound 18, (2S)-2-amino-4-[(3-methylbutyl)sulfanyl]butanoic acid]
Percentage Turn-over mMAT [1]: 1% | Percentage Turn-Over (sMAT) [2]: 36% | Percentage Turn-over eMAT [3]: 0% | Percentage Turn-over hMAT2A [4]: 0% | Percentage Turn-over hMAT2 [5]: 0% | Percentage Turn-over hMAT1A [6]: 0%

CC(C)=CCSCC[C@H](N)C(=O)O [compound 19, (2S)-2-amino-4-[(3-methylbut-2-en-1-yl)sulfanyl]butanoic acid]
Percentage Turn-over mMAT [1]: 13% | Percentage Turn-Over (sMAT) [2]: 12% | Percentage Turn-over eMAT [3]: 3% | Percentage Turn-over hMAT2A [4]: 4% | Percentage Turn-over hMAT2 [5]: 6% | Percentage Turn-over hMAT1A [6]: 0%

[N-]=[N+]=NCCCSCC[C@H](N)C(=O)O [compound 21, (2S)-2-amino-4-[(3-azidopropyl)sulfanyl]butanoic acid]
Percentage Turn-over mMAT [1]: 31% | Percentage Turn-Over (sMAT) [2]: 60% | Percentage Turn-over eMAT [3]: 0% | Percentage Turn-over hMAT2A [4]: 19% | Percentage Turn-over hMAT2 [5]: 46% | Percentage Turn-over hMAT1A [6]: 0%
